Experimental data published in patent US20030153622A1, “Ophthalmic solution and contact lens solution” (MENICON CO., LTD., priority 2001, published 2003).

Assay: Characteristics of Component B (isoelectric point; pH and osmotic pressure in 0.1 mol/L aqueous solution)
Assay type: physicochemical
Conditions: for Isoelectric point: Component B; for Osmotic pressure / pH: Component B in 0.1 mol/L aqueous solution
Excerpt: As the Component A, polyhexamethylene biguamide (PHMB) was used. As the Component B (tonicity adjusting agent), different kinds of the amino-acid-based components having different isoelectric points as indicated in the following TABLE 2 were used. […] As the chelating agent, disodium salt of ethylenediamine tetraacetic acid (EDTA·2Na) was used.

SMILES	Isoelectric point	Osmotic pressure	pH
NCCCCCC(=O)O [ε-aminocaproic acid]	7.60	106 mOsm/kg	7.54
N[C@@H](Cc1ccccc1)C(=O)O [L-phenylalanine]	5.48	105 mOsm/kg	6.14
N[C@@H](CO)C(=O)O [L-serine]	5.68	105 mOsm/kg	6.12
Cl.NCCCC[C@H](N)C(=O)O [lysine hydrochloride]	9.74	105 mOsm/kg	5.91
N[C@@H](CS)C(=O)O [L-cysteine]	5.07	102 mOsm/kg	5.86
Cl.N[C@@H](Cc1c[nH]cn1)C(=O)O [L-histidine hydrochloride]	7.59	105 mOsm/kg	5.80
N=C(N)NCCC[C@H](N)C(=O)O [arginine]	10.76	100 mOsm/kg	11.20
C[C@@H](O)[C@H](N)C(=O)O [L-threonine]	6.16	102 mOsm/kg	5.88
NCCCC(=O)O [γ-aminobutyric acid]	7.30	107 mOsm/kg	5.96
Cl.N=C(N)NCCC[C@H](N)C(=O)O [arginine hydrochloride]	10.76	181 mOsm/kg	5.62
CC(N)C(=O)O (racemic) [DL-alanine]	6.00	104 mOsm/kg	6.05
CC(C)[C@H](N)C(=O)O [L-valine]	5.96	103 mOsm/kg	7.83
NCCS(=O)(=O)O [taurine]	4.50	106 mOsm/kg	5.19
O=C(O)[C@@H]1CCCN1 [L-proline]	6.30	104 mOsm/kg	5.90
O=C(O)[C@@H]1C[C@@H](O)CN1 [L-oxyproline]	5.83	105 mOsm/kg	5.87
